What was measured:
Format in all cases: in vivo
[1] = system: Echinochloa crusgalli; experiment: Weeding effect in post-emergence stage; conditions: for Weeding effect in post-emergence stage, Echinochloa crusgalli: level of fresh weight growth control rate; for activity level (growth control rate) Echinochloa crusgalli: post-emergence, 7.5 g/ha, 3 weeks
Summary of the method: (§1)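 Pot-grown weeds were sprayed at the 2-3 leaf stage, 2 weeks after sowing, with compound in acetone plus Tween 80 and 1.5 liter/ha methyl oleate emulsifiable concentrate, diluted in water. Doses were 500, 250, 125, 60, 30, 15, 7.5 g/ha. Growth control was scored after 3 weeks in greenhouse; mean of three replicates.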

[2] = system: Rice; experiment: Transplanted rice safety evaluation; conditions: transplanted japonica rice, 30 g/ha, 21 days after treatment
Protocol: (§2) The activity level criteria for plant damage (i.e., growth control rate) are as follows:
In addition, the rice field soil that loaded into the 1/1,000,000 ha pot was leveled to keep water storage at 3-4 cm depth. The 5 leaf stage rice (japonica rice) was transplanted at 3 cm of transplanting depth the next day. The compound of the present invention was treated by the same way after 5 days of transplantation.
(§3) The fertility condition of Echinochloa crusgalli. Scirpus juncoides. Bidens tripartita L., Monochoria vaginalis, Leptochloa chinensis and Sagittaria trifolia 14 days after the treatment of the compound of the invention and the fertility condition of rice 21 days after the treatment of the compound of the invention respectively with the naked eye. Evaluate the weed control effect with the above activity standard level. Many compounds show excellent activity and selectivity.

[3] = system: Veronica didyma Tenore; experiment: Weeding effect in pre-emergence stage; conditions: 30 g/ha, 4 weeks
Summary of the method: (§4)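 Test compounds were dissolved in acetone with tween 80, diluted with water and sprayed right after sowing, with seeds covered by 0.5-2 cm of soil. Rates were 500 to 7.5 g/ha. Growth control was scored against activity-level criteria after 4 weeks in the greenhouse.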

[4] = system: Capsella bursa-pastoris; experiment: Weeding effect in pre-emergence stage; conditions: 30 g/ha, 4 weeks
Summary of the method: as §4

[5] = system: Amaranthus retroflexus; experiment: Weeding effect in pre-emergence stage; conditions: 30 g/ha, 4 weeks
Summary of the method: as §4

[6] = system: Setaria viridis; experiment: Weeding effect in pre-emergence stage; conditions: 30 g/ha, 4 weeks
Summary of the method: as §4

[7] = system: Abutilon theophrasti; experiment: Weeding effect in pre-emergence stage; conditions: 30 g/ha, 4 weeks
Summary of the method: as §4

[8] = system: Descurainia sophia; experiment: Weeding effect in pre-emergence stage; conditions: 30 g/ha, 4 weeks
Summary of the method: as §4

[9] = system: corn; experiment: Pre-emergence stage, crop selectivity; conditions: 30 g/ha, 4 weeks
Summary of the method: as §4

[10] = system: Peanut; experiment: Pre-emergence stage, crop selectivity; conditions: 30 g/ha, 4 weeks
Summary of the method: as §4

[11] = system: cotton; experiment: Pre-emergence stage, crop selectivity; conditions: 30 g/ha, 4 weeks
Summary of the method: as §4

[12] = system: Soybeans; experiment: Pre-emergence stage, crop selectivity; conditions: 30 g/ha, 4 weeks
Summary of the method: as §4

[13] = system: Monochoria vaginalis; experiment: Weed control effect evaluation in rice field; conditions: rice field pot, 30 g/ha, 14 days after treatment
Text: as §2
(§5) Rice field soil was loaded into a 1/1,000,000 ha pot. The seeds of Echinochloa crusgalli. Scirpus juncoides. Bidens tripartita L., Monochoria vaginalis, and Leptochloa chinensis were sowed and gently covered with soil, then left to stand still in greenhouse in the state of 0.5-1 cm of water storage. The tuber of Sagittaria trifolia was planted in the next day or 2 days later. It was kept at 3-4 cm of water storage thereafter. The weeds were treated by dripping the WP or SC water diluents prepared according to the common preparation method of the compounds of the present invention with pipette homogeneously to achieve specified effective amount when Echinochloa crusgalli. Scirpus juncoides, Bidens tripartita L., Monochoria vaginalis, and Leptochloa chinensis reached 0.5 leaf stage and Sagittaria trifolia reached the time point of primary leaf stage.
as §3

[14] = system: Leptochloa chinensis; experiment: Weed control effect evaluation in rice field; conditions: rice field pot, 30 g/ha, 14 days after treatment
Text: as §2, §5, §3

[15] = system: Scirpus juncoides; experiment: Weed control effect evaluation in rice field; conditions: rice field pot, 30 g/ha, 14 days after treatment
Text: as §2, §5, §3

[16] = system: Digitaria sanguinalis; experiment: Weeding effect in post-emergence stage; conditions: level of fresh weight growth control rate
Summary of the method: as §1

[17] = system: Setaria viridis; experiment: Weeding effect in post-emergence stage; conditions: level of fresh weight growth control rate
Summary of the method: as §1

[18] = system: Eleusine indica; experiment: Weeding effect in post-emergence stage; conditions: for Weeding effect in post-emergence stage, Eleusine indica: level of fresh weight growth control rate; for activity level (growth control rate) Eleusine indica: post-emergence, 7.5 g/ha, 3 weeks
Summary of the method: as §1

[19] = system: Alopecurus japonicus; experiment: Weeding effect in post-emergence stage; conditions: level of fresh weight growth control rate
Summary of the method: as §1

[20] = system: Abutilon theophrasti; experiment: Weeding effect in post-emergence stage; conditions: level of fresh weight growth control rate
Summary of the method: as §1

[21] = system: Amaranthus retroflexus; experiment: Weeding effect in post-emergence stage; conditions: 7.5 g/ha, 3 weeks
Summary of the method: as §1

C[C@@H](O/N=C/c1cc(-n2c(=O)cc(C(F)(F)F)n(C)c2=O)c(F)cc1Cl)C(=O)OCC(F)(F)F [218(R)]
Weeding effect in post-emergence stage, Echinochloa crusgalli ([1]; Dose 15 g/ha): 5 (Level 5: growth control rate is above 85%)
plant damage level Rice [2]: 0 (Level 0: growth control rate is less than 5%)
activity level (growth control rate) Veronica didyma Tenore [3]: 5 (Level 5: growth control rate is above 85%)
activity level (growth control rate) Capsella bursa-pastoris [4]: 5 (Level 5: growth control rate is above 85%)
activity level (growth control rate) Amaranthus retroflexus [5]: 5 (Level 5: growth control rate is above 85%)
activity level (growth control rate) Setaria viridis [6]: 5 (Level 5: growth control rate is above 85%)
activity level (growth control rate) Abutilon theophrasti [7]: 5 (Level 5: growth control rate is above 85%)
activity level (growth control rate) Descurainia sophia [8]: 5 (Level 5: growth control rate is above 85%)
plant damage level Corn [9]: 0 (Level 0: growth control rate is less than 5%)
plant damage level Peanut [10]: 0 (Level 0: growth control rate is less than 5%)
plant damage level Cotton [11]: 0 (Level 0: growth control rate is less than 5%)
plant damage level Soybeans [12]: 0 (Level 0: growth control rate is less than 5%)
activity level (weed control effect) Monochoria vaginalis [13]: 5 (Level 5: growth control rate is above 85%)
activity level (weed control effect) Leptochloa chinensis [14]: 5 (Level 5: growth control rate is above 85%)
activity level (weed control effect) Scirpus juncoides [15]: 5 (Level 5: growth control rate is above 85%)
Weeding effect in post-emergence stage, Digitaria sanguinalis ([16]; Dose 15 g/ha): 5 (Level 5: growth control rate is above 85%)
Weeding effect in post-emergence stage, Setaria viridis ([17]; Dose 15 g/ha): 5 (Level 5: growth control rate is above 85%)
Weeding effect in post-emergence stage, Eleusine indica ([18]; Dose 15 g/ha): 5 (Level 5: growth control rate is above 85%)
Weeding effect in post-emergence stage, Alopecurus japonicus ([19]; Dose 15 g/ha): 5 (Level 5: growth control rate is above 85%)
Weeding effect in post-emergence stage, Abutilon theophrasti ([20]; Dose 15 g/ha): 5 (Level 5: growth control rate is above 85%)

COC(=O)C(C)O/N=C/c1cc(-n2c(=O)cc(C(F)(F)F)n(C)c2=O)c(F)cc1Cl (racemic) [Compound 194]
activity level (growth control rate) Amaranthus retroflexus [21]: 5 (Level 5: growth control rate is above 85%)
Weeding effect in post-emergence stage, Echinochloa crusgalli ([1]; Dose 7.5 g/ha): 5 (Level 5: growth control rate is above 85%)
Weeding effect in post-emergence stage, Echinochloa crusgalli ([1]; Dose 15 g/ha): 5 (Level 5: growth control rate is above 85%)
activity level (growth control rate) Echinochloa crusgalli [1]: 4 (Level 4: growth control rate is greater than or equal to 60% and less than 85%)
Weeding effect in post-emergence stage, Digitaria sanguinalis ([16]; Dose 7.5 g/ha): 5 (Level 5: growth control rate is above 85%)
Weeding effect in post-emergence stage, Digitaria sanguinalis ([16]; Dose 15 g/ha): 5 (Level 5: growth control rate is above 85%)
Weeding effect in post-emergence stage, Setaria viridis ([17]; Dose 7.5 g/ha): 5 (Level 5: growth control rate is above 85%)
Weeding effect in post-emergence stage, Setaria viridis ([17]; Dose 15 g/ha): 5 (Level 5: growth control rate is above 85%)
Weeding effect in post-emergence stage, Eleusine indica ([18]; Dose 7.5 g/ha): 5 (Level 5: growth control rate is above 85%)
Weeding effect in post-emergence stage, Eleusine indica ([18]; Dose 15 g/ha): 5 (Level 5: growth control rate is above 85%)
activity level (growth control rate) Eleusine indica [18]: 4 (Level 4: growth control rate is greater than or equal to 60% and less than 85%)
Weeding effect in post-emergence stage, Alopecurus japonicus ([19]; Dose 7.5 g/ha): 4 (Level 4: growth control rate is greater than or equal to 60% and less than 85%)
Weeding effect in post-emergence stage, Alopecurus japonicus ([19]; Dose 15 g/ha): 5 (Level 5: growth control rate is above 85%)
Weeding effect in post-emergence stage, Abutilon theophrasti ([20]; Dose 7.5 g/ha): 5 (Level 5: growth control rate is above 85%)
Weeding effect in post-emergence stage, Abutilon theophrasti ([20]; Dose 15 g/ha): 5 (Level 5: growth control rate is above 85%)

COC(=O)C(C)O/N=C/c1cc(-n2c(=O)n(C)c(=S)n(C)c2=O)c(F)cc1Cl (stereo not drawn) [Compound 1]
activity level (growth control rate) Amaranthus retroflexus [21]: 3 (Level 3: growth control rate is greater than or equal to 40% and less than 60%)
Weeding effect in post-emergence stage, Echinochloa crusgalli ([1]; Dose 15 g/ha): 5 (Level 5: growth control rate is above 85%)
activity level (growth control rate) Echinochloa crusgalli [1]: 3 (Level 3: growth control rate is greater than or equal to 40% and less than 60%)
Weeding effect in post-emergence stage, Digitaria sanguinalis ([16]; Dose 15 g/ha): 5 (Level 5: growth control rate is above 85%)
Weeding effect in post-emergence stage, Setaria viridis ([17]; Dose 15 g/ha): 5 (Level 5: growth control rate is above 85%)
Weeding effect in post-emergence stage, Eleusine indica ([18]; Dose 15 g/ha): 5 (Level 5: growth control rate is above 85%)
activity level (growth control rate) Eleusine indica [18]: 3 (Level 3: growth control rate is greater than or equal to 40% and less than 60%)
Weeding effect in post-emergence stage, Alopecurus japonicus ([19]; Dose 15 g/ha): 5 (Level 5: growth control rate is above 85%)
Weeding effect in post-emergence stage, Abutilon theophrasti ([20]; Dose 15 g/ha): 5 (Level 5: growth control rate is above 85%)

COC(=O)[C@@H](C)O/N=C/c1cc(-n2c(=O)n(C)c(=S)n(C)c2=O)c(F)cc1Cl [1(R)]
activity level (growth control rate) Amaranthus retroflexus [21]: 5 (Level 5: growth control rate is above 85%)
Weeding effect in post-emergence stage, Echinochloa crusgalli ([1]; Dose 15 g/ha): 5 (Level 5: growth control rate is above 85%)
activity level (growth control rate) Echinochloa crusgalli [1]: 4 (Level 4: growth control rate is greater than or equal to 60% and less than 85%)
activity level (growth control rate) Veronica didyma Tenore [3]: 5 (Level 5: growth control rate is above 85%)
activity level (growth control rate) Capsella bursa-pastoris [4]: 5 (Level 5: growth control rate is above 85%)
activity level (growth control rate) Amaranthus retroflexus [5]: 5 (Level 5: growth control rate is above 85%)
activity level (growth control rate) Setaria viridis [6]: 5 (Level 5: growth control rate is above 85%)
activity level (growth control rate) Abutilon theophrasti [7]: 5 (Level 5: growth control rate is above 85%)
activity level (growth control rate) Descurainia sophia [8]: 5 (Level 5: growth control rate is above 85%)
plant damage level Corn [9]: 0 (Level 0: growth control rate is less than 5%)
plant damage level Peanut [10]: 0 (Level 0: growth control rate is less than 5%)
plant damage level Cotton [11]: 0 (Level 0: growth control rate is less than 5%)
plant damage level Soybeans [12]: 0 (Level 0: growth control rate is less than 5%)
Weeding effect in post-emergence stage, Digitaria sanguinalis ([16]; Dose 15 g/ha): 5 (Level 5: growth control rate is above 85%)
Weeding effect in post-emergence stage, Setaria viridis ([17]; Dose 15 g/ha): 5 (Level 5: growth control rate is above 85%)
Weeding effect in post-emergence stage, Eleusine indica ([18]; Dose 15 g/ha): 5 (Level 5: growth control rate is above 85%)
activity level (growth control rate) Eleusine indica [18]: 5 (Level 5: growth control rate is above 85%)
Weeding effect in post-emergence stage, Alopecurus japonicus ([19]; Dose 15 g/ha): 5 (Level 5: growth control rate is above 85%)
Weeding effect in post-emergence stage, Abutilon theophrasti ([20]; Dose 15 g/ha): 5 (Level 5: growth control rate is above 85%)

Source: patent US20230111310A1, “CARBOXYLIC ACID DERIVATIVE-SUBSTITUTED IMINO ARYL COMPOUND, PREPARATION METHOD THEREFOR, HERBICIDAL COMPOSITION AND USE THEREOF” (Qingdao Kingagroot Chemical Compound Co., Ltd., priority 2020, published 2023)
